Earlier results in publication PMC12181400, “Leveraging viral genome sequences and machine learning models for identification of potentially selective antiviral agents” (Communications Chemistry, 2025).
Counter-ions that a name gives are not always drawn. Like-named read-outs stand apart in the source and are kept apart here.

Legend:
Settings in all cases: cited from earlier work
[1] = test system: cell viability (tox21-ap1-agonist-p1)
[2] = test system: cell viability (tox21-ar-mda-kb2-luc-agonist-p3)
[3] = test system: cell viability (tox21-ar-mda-kb2-luc-antagonist-p2)
[4] = test system: cell viability (tox21-are-bla-p1)
[5] = test system: cell viability (tox21-car-agonist-p1)
[6] = test system: cell viability (tox21-car-antagonist-p1)
[7] = curve rank −9 to 9, 0 = inactive, ref NCATS Tox21 public data browser

Structure (SMILES) | tox21-ap1-agonist-p1-viability (curve rank) [1] | tox21-ar-mda-kb2-luc-agonist-p3-viability (curve rank) [2] | tox21-ar-mda-kb2-luc-antagonist-p2-viability (curve rank) [3] | tox21-are-bla-p1-viability (curve rank) [4] | tox21-car-agonist-p1-viability (curve rank) [5] | tox21-car-antagonist-p1-viability (curve rank) [6] | tox21-ap1-agonist-p1-viability (curve rank) [1, 7] | tox21-ar-mda-kb2-luc-agonist-p3-viability (curve rank) [2, 7] | tox21-ar-mda-kb2-luc-antagonist-p2-viability (curve rank) [3, 7] | tox21-are-bla-p1-viability (curve rank) [4, 7] | tox21-car-agonist-p1-viability (curve rank) [5, 7] | tox21-car-antagonist-p1-viability (curve rank) [6, 7]
Cc1c(NC(C)C)c(=O)n(-c2ccccc2)n1C [Ramifenazone] | 0 | 0 | 0 | 0 | 0 | 0 | – | – | – | – | – | –
CC(Cc1ccccc1)(NC(=O)CN)c1ccccc1 (stereo not drawn) [Remacemide hydrochloride] | – | – | – | – | – | – | 0 | 0 | 0 | 0 | 0 | 0
CCN1CCC[C@H]1CNC(=O)c1c(OC)ccc(Br)c1OC [Remoxipride] | 0 | 0 | 0 | 0 | 0 | 0 | – | – | – | – | – | –
COc1ccc(C2CNC(=O)C2)cc1OC1CCCC1 (stereo not drawn) [Rolipram] | – | – | – | – | – | – | 0 | 0 | 0 | 0.67 | 0 | 0
CN(C(=O)c1c(O)c2ccccc2n(C)c1=O)c1ccccc1 [Roquinimex] | 0 | 0 | 0 | 0 | 0 | 0 | – | – | – | – | – | –
O=C1NS(=O)(=O)c2ccccc21 [Saccharin] | 0 | 0 | 0 | 0 | 0 | 0 | – | – | – | – | – | –
NC(=O)c1ccccc1O [Salicylamide] | 0 | 0 | 0 | 0 | 0 | 0 | – | – | – | – | – | –
O=C(Oc1ccccc1C(=O)O)c1ccccc1O [Salsalate] | 0 | 0 | 0 | 0 | 0 | 0 | – | – | – | – | – | –
Cc1ncc([N+](=O)[O-])n1CC(C)O (stereo not drawn) [Secnidazole] | – | – | – | – | – | – | 0 | 0 | 0 | 0 | 0 | 0
C#CCN(C)[C@H](C)Cc1ccccc1 [Selegiline hydrochloride] | – | – | – | – | – | – | 0 | 0 | 0 | 0 | 0 | 0
Cc1cc(CC(=O)[O-])n(C)c1C(=O)c1ccc(Cl)cc1.[Na+] [Sodium zomepirac] | – | – | – | – | – | – | 0 | 0 | 0 | 0 | 0 | 0
COc1cc(NS(=O)(=O)c2ccc(N)cc2)nc(OC)n1 [Sulfadimethoxine] | 0 | 0 | 0 | 0 | 0 | 0 | – | – | – | – | – | –
[H]/N=C(/N)NS(=O)(=O)c1ccc(N)cc1 [Sulfaguanidine] | 0 | 0 | 0 | 0 | 0 | 0 | – | – | – | – | – | –
Nc1ccc(S(=O)(=O)Nc2ccnn2-c2ccccc2)cc1 [Sulfaphenazole] | 0 | 0 | 0 | 0 | 0 | 0 | – | – | – | – | – | –
Nc1ccc(S(=O)(=O)Nc2ccccn2)cc1 [Sulfapyridine] | 0 | 0 | 0 | 0 | 0 | 0 | – | – | – | – | – | –
O=C1C(CC[S+]([O-])c2ccccc2)C(=O)N(c2ccccc2)N1c1ccccc1 (stereo not drawn) [Sulfinpyrazone] | 0 | 0 | 0 | 0 | 0 | 0 | – | – | – | – | – | –
CCCCC1(COC(=O)CCC(=O)O)C(=O)N(c2ccccc2)N(c2ccccc2)C1=O [Suxibuzone] | 0 | 0 | 0 | 0 | 0 | 0 | – | – | – | – | – | –
Cc1scc2c1N(C(=O)CN1CCN(C)CC1)c1ccccc1NC2=O [Telenzepine] | 0 | 0 | 0 | 0 | 0 | 0 | – | – | – | – | – | –
c1ccc2c(c1)CCCC2C1=NCCN1 (stereo not drawn) [Tetrahydrozoline hydrochloride] | 0 | 0 | 0 | 0 | 0 | 0 | – | – | – | – | – | –
CC(C(=O)O)c1ccc(C(=O)c2ccccc2)s1 (stereo not drawn) [Tiaprofenic acid] | 0 | 0 | 0 | 0 | 0 | 0 | – | – | – | – | – | –
CCS(=O)(=O)CCn1c([N+](=O)[O-])cnc1C [Tinidazole] | 0 | 0 | 0 | 0 | 0 | 0 | – | – | – | – | – | –
COc1cccc(C2(O)CCCCC2CN(C)C)c1.Cl (stereo not drawn) [Tramadol hydrochloride] | – | – | – | – | – | – | 0 | 0 | 0 | 0 | 0 | 0
